# Laboratory results as given in PMC6920923, “Improving In Vivo Brain Delivery of Monoclonal Antibody Using Novel Cyclic Peptides” (Pharmaceutics, 2019).
# “Also recorded” adds a separate entry of the source.
# Legend:
# [1] = system: MDCK cell monolayers / in vivo BBB; conditions: vs ADTC1 or ADTC5; ref [20]; cited from earlier work
# Excerpt: (§1) This study was also aimed at developing cyclic ADTHAV peptide by combining important residues from the ADT peptide (i.e., ADTC5) and HAV peptide (i.e., HAV6). Because ADTC5 and HAV6 bind at different sites on the EC1 domain, combining the two active sequences could provide synergistic activity form both parent peptides on cyclic ADTHAV. In this case, cyclic ADTHAV contains the Thr-Pro-Pro-Val sequence from ADTC5 and Ser-His-Ala-Val sequence from HAV6. The hypothesis is that the combined sequence enhances BBB modulatory activity better than the parent ADTC5 and HAV6. The selection of the Thr-Pr ...
# brains of C57BL/6 mice = assay: In vivo brain delivery of IRdye800CW-IgG mAb (NIRF quantification); conditions: n = 3
# Description: The activity of each peptide in enhancing BBB penetration was evaluated by delivering IRdye800CW donkey anti-goat IgG mAb in C57BL/6 mice; the amounts of mAb in the brain were determined using near infrared fluorescence (NIRF) imaging. Each group contains 3 mice per group (n = 3) with a mixture of male and female mice, selected randomly for each arm of the study. The injection solution was prepared by adding 600 µL PBS into 0.5 mg lyophilized IgG mAb; then, approximately 1.5 mg lyophilized peptide was added into the mixture yielding the injectable formulation. A 100 µL solution of a mixture containing IgG mAb (21.6 nmol/kg) along with 13 µmol/kg peptide was administered via tail vein. As a control, 100 µL of IgG mAb alone was administered via i.v. route. After the delivered molecules had been circulating for 15 min, the mice were sacrificed; then, a mixture of PBS with 0.5% Tween-20 was administered for cardiac perfusion to remove the blood and delivered molecules from the brain microvessels. The brain and other organs such as lung, heart, spleen, liver, and kidney were harvested and rinsed with PBS. The isolated organs were scanned with Odyssey® CLx for mAb quantification.
# The brain deposition of IgG mAb was also quantified by NIRF imaging in brain homogenates. The isolated brains were mechanically homogenized in 2.0 mL of PBS. To make the standard solutions, IRDye800CW IgG mAb stock solution (70 µg/mL) was prepared; it was then diluted with various amounts of PBS to make six different mAb concentrations. To generate a calibration curve, the brain homogenate (200 µL) was aliquoted out to a 96-well plate. A total of 10 µL of each concentration of IgG mAb was added to three different wells of blank brain homogenates. The standard spiked homogenates were at a range of 10–200 ng/mL IgG mAb in brain homogenate. The wells were scanned using the Odyssey® CLx scanner, and the signal intensities vs. concentrations of mAb per gram of brain were used to generate a calibration curve.
# ANOVA with Student–Newman–Keuls was used to compare the data for determining statistical significance for IgG mAb deposition in the brains. A p-value of less than 0.05 was used as a criterion for a significant difference in data comparison. Numeric results are presented as: mean ± SEM.
# A calibration curve was generated to determine the amount of IgG mAb in the brain by spiking blank brain homogenates with a concentration range from 10 to 200 ng/mL, and good linearity with R^2 ≥ 0.98 was achieved. […] The average amounts of IgG mAb in the brains of HAV6-treated and control animals were 3.4 ± 0.4 and 4.0 ± 0.5 pmol/g brain, respectively. In contrast, the average amounts of mAb in the brains of cyclic HAVN1- and HAVN2-treated mice were 8.6 ± 0.5 and 8.8 ± 0.6 pmol/g brain, respectively. The BBB modulatory activities of ADTC5, linear ADTHAV, and cyclic ADTHAV were also compared to the control (Figure 5). […] The average brain deposition of IgG mAb were 11.8 ± 0.5, 15.7 ± 0.8, and 13.3 ± 0.7 pmol/g brain for linear ADTHAV, cyclic ADTHAV, and ADTC5, respectively.
# EC1 domain of E-cadherin = molecular target: T1, EC1 domain of E-cadherin (Homo sapiens, UniProt P12830); conditions: NMR studies; ref [26]; cited from earlier work
# T1 sequence (P12830 155-262 limits assumed): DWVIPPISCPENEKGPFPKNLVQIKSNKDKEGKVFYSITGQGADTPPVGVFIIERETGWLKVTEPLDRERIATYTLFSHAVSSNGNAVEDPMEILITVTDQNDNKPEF
# Excerpt: Cadherin peptides interrupt the cadherin–cadherin interactions by binding to the extracellular domains of cadherins allowing delivered molecules to pass through the […] of the BBB. […] Using the X-ray structure of C-cadherin as a model, it is seen that the cadherin molecules can form cis- and trans-interactions with each other in a homotypic fashion. The cis-cadherin interactions were formed via binding of the EC1 domain from one ca ...
# brain (C57BL/6 mice) [2] = conditions: recent studies, ref not given; cited from earlier work
# Excerpt: Treating brain diseases is a challenge as it is difficult to deliver drugs through the BBB into the brain. As many approaches to solve this problem have failed clinically, it is important to investigate new methods to improve brain delivery of molecules for diagnosing and treating brain diseases. This study was focused on designing, synthesizing, and evaluating new cyclic peptides for modulating the BBB to increase paracellular protein delivery into the brain.
# brain (C57BL/6 mice) [3] = conditions: peptide 13 µmol/kg, albumin 21.6 nmol/kg; ref not given; cited from earlier work
# Excerpt: Treating brain diseases is a challenge as it is difficult to deliver drugs through the BBB into the brain. As many approaches to solve this problem have failed clinically, it is important to investigate new methods to improve brain delivery of molecules for diagnosing and treating brain diseases. This study was focused on designing, synthesizing, and evaluating new cyclic peptides for modulating the BBB to increase paracellular protein delivery into the brain. […] It is proposed that the rigidity imposed on the peptide backbone of the cyclic peptide reduced the ensemble ...
# BBB [4] = conditions: ref [22], cited from earlier work
# Excerpt: Treating brain diseases is a challenge as it is difficult to deliver drugs through the BBB into the brain. As many approaches to solve this problem have failed clinically, it is important to investigate new methods to improve brain delivery of molecules for diagnosing and treating brain diseases. This study was focused on designing, synthesizing, and evaluating new cyclic peptides for modulating the BBB to increase paracellular protein delivery into the brain. […] This is because it is dangerous to keep the BBB open for a long period of time, allowing unwanted molecules to enter the brain. However, it is necessary to maintain the opening for an adequate amount of time to allow the delivered molecule to enter the brain with the necessary dose. For example, HAV6 has an opening window of less than 1 h to allow a small molecule such as IRdye-R800 and gadopentetic acid (Gd-DTPA) to enter the brain, while ADTC5 has a durati ...
# BBB [5] = conditions: cited from earlier work
# Description: The duration of time of the BBB opening is an important factor to consider for using cadherin peptides to deliver molecules to the brain. This is because it is dangerous to keep the BBB open for a long period of time, allowing unwanted molecules to enter the brain. However, it is necessary to maintain the opening for an adequate amount of time to allow the delivered molecule to enter the brain with the necessary dose. For example, HAV6 has an opening window of less than 1 h to allow a small molecule such as IRdye-R800 and gadopentetic acid (Gd-DTPA) to enter the brain, while ADTC5 has a durati ...
# brain [6] = conditions: cited from earlier work
# Description: (§2) Several attempts have been made to overcome this challenge using various invasive and non-invasive methods. Intracerebral ventricular (ICV) delivery is an invasive injection technique in which drug substances are administered directly into the cerebrospinal fluid in cerebral ventricles. Alternatively, many non-invasive methods have been investigated in vivo with various levels of success using receptor-mediated drug delivery systems, liposomes, microbubble-enhanced diagnostic ultrasound (MEUS), and nanoparticles. The most successful non-invasive method for delivering drugs to ...
# [7] = system: medulloblastoma brain tumor; conditions: ref [24], cited from earlier work
# Description: as §2
# [8] = system: primary brain endothelial cell monolayers; conditions: ref [33] Bocsik et al.; cited from earlier work
# Excerpt: as §1
# MDCK cell monolayers = conditions: ref [19], cited from earlier work
# Description: Previously, cyclic cHAVc1 (cyclo(1,8)Ac-CSHAVASC-NH2) and cHAVc3 (cyclo(1,6)Ac-CSHAVC-NH2) were prepared and compared to a linear HAV4 (Ac-SHAVAS-NH2) in modulating the intercellular junctions in vitro and in vivo [19]. […] An alanine scanning study was carried out to evaluate the role of each amino acid in HAV6 peptide, and the biological activity of each alanine mutant peptide was evaluated in lowering the TEER values of MDCK cell monolayers. Mutation of the Ser1 to Ala1 residue reduced the junction modulatory activity of the HAV6 mutant; ...
# brain [9] = conditions: MRI, mice; ref [19]; cited from earlier work
# Description: Previously, cyclic cHAVc1 (cyclo(1,8)Ac-CSHAVASC-NH2) and cHAVc3 (cyclo(1,6)Ac-CSHAVC-NH2) were prepared and compared to a linear HAV4 (Ac-SHAVAS-NH2) in modulating the intercellular junctions in vitro and in vivo [19].
# BBB [10] = conditions: disulfide cyclic peptides vs parent linear peptides; ref [19],[20]; cited from earlier work
# Excerpt: The goal of this study was to design and synthesize novel cyclic peptides derived from HAV6 and ADTC5 peptides to improve their BBB modulatory activity and selectivity by forming a peptide bond from the N- to C-termini (Table 1, Figure 1). The hypothesis is that the formation of N-to-C-termini cyclic peptides increases the backbone rigidity of the peptide to improve binding affinity and selectivity for the EC1 domain of cadherin as well as improving plasma stability of the cyclic peptide compared to its parent linear peptide. Previously, cHAVc3 and ADTC5 cyclic peptides were formed using a dis ...
substance,measurement,setting,value
"cyclo(1,6)Ac-CDTPPC-NH2 (disulfide) [ADTC6, earlier cyclic ADT peptide]","activity of ADT peptide, in words",[1],lowered the activity of ADTC6 compared to ADTC5
"Ac-SHAVSS-NH2 [HAV6, parent linear cadherin peptide]",amount of IgG mAb in the brain (brain deposition),"brains of C57BL/6 mice; IgG mAb 21.6 nmol/kg with or without 13 µmol/kg peptide, i.v. tail vein, 15 min circulation, PBS/0.5% Tween-20 perfusion, NIRF (Odyssey CLx) of brain homogenate, mean ± SEM",3.4 ± 0.4 pmol/g brain
same,"brain delivery of IgG mAb compared to control (IgG mAb alone), in words","brains of C57BL/6 mice; IgG mAb 21.6 nmol/kg, peptide 13 µmol/kg i.v., 15 min, ANOVA Student–Newman–Keuls",did not enhance brain delivery of IgG mAb compared to the control
same,"binding site on EC1 domain, in words",EC1 domain of E-cadherin,bind to the EC1 domain of E-cadherin at the interface of cis-cadherin interactions
same,"brain delivery of 15 kDa lysozyme vs control, in words",brain (C57BL/6 mice) [2],significantly enhanced the brain delivery of 15 kDa lysozyme compared to the control
same,"brain delivery of albumin vs control, in words",brain (C57BL/6 mice) [3],did not significantly enhance brain delivery of albumin; also recorded: no significant enhancement of albumin brain deposition
same,"BBB penetration of galbumin with 10-min delay after peptide, in words",BBB [4]; 10-min delay between peptide and galbumin,does not allow the galbumin to cross the BBB
same,"brain deposition of galbumin, in words","BBB [4]; galbumin 600 nmol/kg, living mice, MRI",significant brain deposition of galbumin
same,"BBB penetration of 65 kDa galbumin, delivered together with peptide, in words",BBB [4]; high dose galbumin,can increase the BBB penetration of galbumin
same,BBB window of opening for galbumin,"BBB [5]; 65 kDa galbumin, ref [22] for HAV6 galbumin data, none printed for ADTC5",< 10 min
same,opening window of BBB for small molecule (IRdye-R800 and Gd-DTPA),"BBB [5]; IRdye-R800 and Gd-DTPA, ref [20],[21]",less than 1 h
same,"brain delivery of various molecules, in words","brain [6]; HAV6 and ADTC5 collectively, 14C-mannitol, PEG, daunomycin, R800, Gd-DTPA, cLABL, cIBR7, galbumin etc., ref [18],[19],[20],[21],[22],[23]",increase the brain delivery of various molecules
same,"oral and brain deliveries of eflornithine, in words","brain [6]; rats, ref [25]",simultaneously increased
same,"survival and tumor growth, in words",[7]; adenanthin + HAV6 vs adenanthin alone or placebo,increased survival and suppressed tumor growth
same,"delivery of adenanthin into brain, in words",[7]; mice with medulloblastoma brain tumor,"significantly improve the delivery of an anticancer drug, adenanthin, into the brains of mice"
"Ac-ADTPPV-NH2 [ADT6, linear ADT peptide of Bocsik et al]","disruption of intercellular junctions (TEER), in words",[8],reversibly disrupts the intercellular junctions of primary brain endothelial cell monolayers
"cyclo(1,6)Ac-CSHAVC-NH2 (disulfide) [cHAVc3, earlier disulfide cyclic HAV peptide]","binding site on EC1 domain, in words",EC1 domain of E-cadherin,bind to the EC1 domain of E-cadherin at the interface of cis-cadherin interactions
same,"lowering of TEER values of MDCK cell monolayers vs HAV4, in words",MDCK cell monolayers; TEER,better than a linear HAV4
same,"junction modulatory activity in MDCK cell monolayers, in words",MDCK cell monolayers; compared to HAV4 (and cHAVc1),more active compared to HAV4 and cHAVc1
same,"in vivo brain delivery of Gd-DTPA vs HAV4, in words",brain [9],better than a linear HAV4
same,"BBB modulatory activity and plasma stability vs parent linear peptides, in words",BBB [10],enhanced BBB modulatory activity and plasma stability compared to their parent linear peptides
